Key:
[1] = molecular target: T1, full-length human HuR protein (Homo sapiens, UniProt Q15717); test: FP assay of HuR-Msi1 ARE binding inhibition; settings: HuR-Msi1 ARE interaction; read-out: HuR Ki via FP assay
T1 construct: full-length human HuR protein was produced by the KU COBRE-PSF Protein Purification Group; made in house
Method in brief: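 Fluorescence polarization competition using full-length human HuR protein and a 3′-fluorescein-labelled 16-nt Msi1 ARE RNA. A fluorescein-labelled degenerate 16-nt RNA served as negative control.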

Musashi 2 (Msi2) = Musashi 2 (Msi2) (Homo sapiens, UniProt Q96DH6); test: Msi2 FP assay; type: binding; settings: cell marked (RRM1), read-out: Msi2 (Ki) (RRM1)
Sequence of Musashi 2 (Msi2) (Q96DH6 whole entry, species assumed): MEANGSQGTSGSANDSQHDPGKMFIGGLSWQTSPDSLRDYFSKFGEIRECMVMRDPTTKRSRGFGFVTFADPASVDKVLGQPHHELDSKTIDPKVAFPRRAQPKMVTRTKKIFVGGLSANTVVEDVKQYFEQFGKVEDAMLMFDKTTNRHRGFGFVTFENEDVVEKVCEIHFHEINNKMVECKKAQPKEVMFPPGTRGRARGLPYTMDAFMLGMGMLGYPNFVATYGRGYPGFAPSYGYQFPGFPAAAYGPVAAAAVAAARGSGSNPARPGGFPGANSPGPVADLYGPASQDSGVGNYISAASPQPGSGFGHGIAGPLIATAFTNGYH

[2] = molecular target: T2, HuR-bound target mRNAs in MDA-MB-231 cells (Homo sapiens, UniProt Q15717); test: Ribonucleoprotein immunoprecipitation (RNP-IP) pull-down assay; type: cell-based; settings: 10 μM
T2 construct: endogenous in cells; host or cells: MDA-MB-231
T2 sequence (Q15717 2-326 limits assumed): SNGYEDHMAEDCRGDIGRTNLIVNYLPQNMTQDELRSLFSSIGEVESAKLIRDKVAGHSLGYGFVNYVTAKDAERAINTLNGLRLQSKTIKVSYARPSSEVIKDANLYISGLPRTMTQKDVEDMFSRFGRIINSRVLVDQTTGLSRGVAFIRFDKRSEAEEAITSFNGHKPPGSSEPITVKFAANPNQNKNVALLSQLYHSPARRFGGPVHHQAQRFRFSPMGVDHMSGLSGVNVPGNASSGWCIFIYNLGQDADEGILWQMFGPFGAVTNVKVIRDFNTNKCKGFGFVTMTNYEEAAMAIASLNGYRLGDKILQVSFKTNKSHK
Procedure: Pull-down Assay #2—Ribonuleoprotein Immunoprecipitation (RNP-IP): Cells with HuR overexpression were treated with compounds, then the cell cytoplasmic lysates collected using NE-PER Nuclear and Cytoplasmic Extraction Kit (Thermo Scientific), then the cell cytoplasmic lysates incubated with anti-HuR antibody, and subsequently Protein G agarose beads (from Roche) added to pull down HuR protein. The HuR-bound target mRNAs pulled down were measured by qRT-PCR using a reported method (Ji, Q., et al., MicroRNA miR-34 inhibits human pancreatic cancer tumor-initiating cells. PLoS One, 2009. 4(8): p. e6816, incorporated herein by reference). Mouse IgG will be used as negative control. Compounds of the present technology block the target mRNAs pulled down by HuR antibody.

[3] = molecular target: T3, HuR protein bound to ARE^Msi1-Biotin (Homo sapiens, UniProt Q15717); test: RNA immunoprecipitation (RNA-IP) pull-down assay; type: cell-based; settings: 20 μM
T3 construct: endogenous in cells; cytoplasmic lysate
T3 sequence (Q15717 2-326 limits assumed): as above
Procedure: Pull-down Assay #1—RNA Immunoprecipitation (RNA-IP): Cells with HuR overexpression will be treated with compounds, then the cell cytoplasmic lysates were collected using NE-PER Nuclear and Cytoplasmic Extraction Kit (Thermo Scientific), and subsequently to the cell cytoplasmic lysates were added the biotinylated target ARE oligo from Msi1 mRNA (ARE^Msi1-Biotin). Following this, streptavidin beads were added to pull down HuR protein bound to ARE^Msi1-Biotin. Unlabeled target AREs used as positive control. Compounds of the present technology block the HuR pull-down by the biotinylated ARE oligo, illustrating inhibition of the HuR-mRNA interaction. For example, using 20 μM KH-39, 20 μM KH-56, and 10 μM KH-58 in such a RNA-IP assay provided the data illustrated in FIG. 5. The numbers immediately below the pictured bands in FIG. 5 are calculated by diving the band intensity of the particular sample by the band intensity of the DMSO treated sample (entry 3). […]

T1 sequence (Q15717 whole entry): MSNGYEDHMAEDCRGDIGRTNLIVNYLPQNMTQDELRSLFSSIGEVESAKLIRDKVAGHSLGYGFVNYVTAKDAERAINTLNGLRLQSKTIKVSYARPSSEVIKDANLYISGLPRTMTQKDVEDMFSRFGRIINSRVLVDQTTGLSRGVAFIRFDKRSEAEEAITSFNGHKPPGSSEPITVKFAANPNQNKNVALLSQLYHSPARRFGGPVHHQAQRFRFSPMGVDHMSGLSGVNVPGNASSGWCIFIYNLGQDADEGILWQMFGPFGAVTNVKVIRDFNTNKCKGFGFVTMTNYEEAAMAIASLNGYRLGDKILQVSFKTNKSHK

## CC(C)(C)c1ccc(C(=O)Nc2ccc3[nH]c(C(=O)NO)cc3c2)cc1 [KH-39, 5-(4-(tert-butyl)benzamido)-N-hydroxy-1H-indole-2-carboxamide]
[1]
  Ki: 0.65 µM
Musashi 2 (Msi2)
  Ki: 3.15 µM
[2]
  HuR pull-down of target mRNAs: at least partially block HuR pull-down of target mRNAs
[3]
  ARE^Msi1-Biotin mediated pull-down of HuR protein: block ARE^Msi1-Biotin mediated pull-down of HuR protein
